How the values were obtained:
CD73 [1] = biological target: T1, CD73 (Homo sapiens (Human), UniProt P21589); assay: Cellular CD73 Assay (primary human CD3+ T-cells with AMP); type: cell-based; settings: primary human peripheral blood CD3+ T-cells, 40 μM AMP, 3 days; readout (cell division or IL-2/IFN-γ) not specified for the column
Description: Primary human peripheral blood CD3+ T-cells obtained from AllCells were thawed and cultured for 24 h in a complete growth medium (Stemline T-cell expansion medium, Sigma #S1694) supplemented with 1 mM L-glutamine, 50 IU/mL of IL-2 and 25 μL/mL of Dynabeads™ Human T-Activator CD3/CD28 (Thermo-Fisher #11161D) at a density of 10^6 cells/mL. Then, cells were labeled with 1.25 μM Cell Trace Violet (Thermo-Fisher #C34557) according to the manufacturer's instructions. Labeled cells were resuspended in a warm complete growth medium and plated onto U-bottom 96-well plates at 25,000 cells/90 μL/well. Next, 500× serial compound dilutions were prepared in DMSO in a 8-point 3-fold titration and then diluted 1:25 into a complete growth medium, generating 20× compound dilutions. Then, 5 μL of 20× compound dilutions was added to the cells and incubated for 60 min at 37° C. After this, 5 μL of 20×AMP was added to a final concentration of 40 μM. Treated cells were cultured for 3 days at 37° C., 5% CO2. Thereafter, cells were gently pelleted by centrifugation, and supernatants were collected and frozen at −80° C. for subsequent cytokine analysis. Cell pellets were resuspended in 100 μL of PBS/2% FBS and gently pipetted up and down to produce a single cell suspension. Then, 3 μL of 7-AAD (BD Biosciences #559925) was added to each well and plates were incubated on ice for 5 min. Cells were then washed and resuspended in 150 μL of PBS/2% FBS. Divided and non-divided live cells were quantified by Attune NxT flow cytometer. Cell Trace Violet-labeled cells cultured without a T-cell activator were used as the nondividing control.
For IL-2 and IFN-γ cytokine analysis, supernatants were thawed on ice, diluted 1:10 in the buffer. The concentration of cytokines was determined using Meso Scale Discovery according to the manufacturer's instructions (Meso Scale Discovery). The EC50 values were determined using a four-parameter nonlinear regression curve fit (GraphPad Prism Version 9.2, GraphPad Software Inc., San Diego, CA).

CD73 [2] = biological target: T1, CD73; assay: Biochemical CD73 Assay (Malachite Green free phosphate detection); settings: recombinant human CD73 2 nM, AMP 40 μM, 45 min at 37° C.
Description: Activity of recombinant CD73 was measured by quantification of free phosphate using the Malachite Green detection system (R&D Systems #DY996). Test compounds were solubilized in DMSO and dispensed into 384-well polystyrene plates in a 8-point 3× titration in duplicates. Then, 10 μL of 4 nM human CD73 enzyme (Novoprotein #C446) in phosphate-free assay buffer (10 mM HEPES, pH 7.4, 125 mM NaCl, 1 mM KCl, 10 mM glucose, 2 mM MgCl2) was added to the plates. The compound and enzyme were incubated for 15 min at RT. Then, 10 μL of 80 μM AMP (Sigma Aldrich #A1752) in the assay buffer was added and the reaction mixture was incubated for 45 min at 37° C. The final concentrations of CD73 and AMP in the reaction were 2 nM and 40 μM, respectively. The reaction was stopped by adding 5 μL of Malachite Green reagent A and incubating for 10 min at RT, followed by addition of 5 μL of Malachite Green reagent B and incubation for 20 min at RT. Absorbance was then read at 620 nm with the Flexstation spectrophotometer (Molecular Devices). The IC50 values were determined using a four-parameter nonlinear regression curve fit.

T1 sequence (P21589 27-574): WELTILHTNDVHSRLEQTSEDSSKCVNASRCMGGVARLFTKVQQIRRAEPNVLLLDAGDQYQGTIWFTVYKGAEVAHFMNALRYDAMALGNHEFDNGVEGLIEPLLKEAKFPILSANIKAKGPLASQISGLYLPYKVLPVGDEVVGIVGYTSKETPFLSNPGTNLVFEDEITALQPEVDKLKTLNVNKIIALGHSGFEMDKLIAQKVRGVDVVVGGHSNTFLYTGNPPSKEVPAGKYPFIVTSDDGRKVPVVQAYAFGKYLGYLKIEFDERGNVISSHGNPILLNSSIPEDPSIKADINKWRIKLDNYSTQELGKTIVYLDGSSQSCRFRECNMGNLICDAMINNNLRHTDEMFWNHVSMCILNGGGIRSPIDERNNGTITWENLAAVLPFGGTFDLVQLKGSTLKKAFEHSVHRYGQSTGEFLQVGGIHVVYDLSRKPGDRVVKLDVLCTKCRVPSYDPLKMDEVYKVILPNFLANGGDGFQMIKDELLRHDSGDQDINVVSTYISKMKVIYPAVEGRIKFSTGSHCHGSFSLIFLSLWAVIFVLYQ

Row | Structure (SMILES) | EC50 (CD73 [1]) [nM] | IC50 (CD73 [2]) [nM]
1 | CNC(=O)N[S@@](C)(=O)=NC(=O)[C@@](COC)(OC[C@H]1O[C@@H](n2ncc3c(NC4CCCC4)nc(Cl)nc32)[C@H](O)[C@@H]1O)P(=O)(O)O [Example 10, ((S)-2-(((2R,3S,4R,5R)-5-(6-Chloro-4-(cyclopentylamino)-1H-pyrazolo[3,4-d]pyrimidin-1-yl)-3,4-dihydroxytetrahydrofuran-2-yl)methoxy)-3-methoxy-1-(((S)-methyl(3-methylureido)(oxo)-λ^6-sulfaneylidene)amino)-1-oxopropan-2-yl)phosphonic Acid] | 0.72 | 0.31
2 | COC[C@@](OC[C@H]1O[C@@H](n2ncc3c(NC4CCCC4)nc(Cl)nc32)[C@H](O)[C@@H]1O)(C(=O)N=[S@@](C)(N)=O)P(=O)(O)O [Example 3, ((2S)-1-((Amino(methyl)(oxo)-λ^6-sulfaneylidene)amino)-2-(((2R,3S,4R,5R)-5-(6-chloro-4-(cyclopentylamino)-1H-pyrazolo[3,4-d]pyrimidin-1-yl)-3,4-dihydroxytetrahydrofuran-2-yl)methoxy)-3-methoxy-1-oxopropan-2-yl)phosphonic Acid] | 1.5 | 1
3 | COC[C@@](OC[C@H]1O[C@@H](n2ncc3c(NC4CCCC4)nc(Cl)nc32)[C@H](O)[C@@H]1O)(C(=O)N=[S@@](C)(=O)NC(=O)C1CC1)P(=O)(O)O [Example 11, ((S)-2-(((2R,3S,4R,5R)-5-(6-Chloro-4-(cyclopentylamino)-1H-pyrazolo[3,4-d]pyrimidin-1-yl)-3,4-dihydroxytetrahydrofuran-2-yl)methoxy)-1-(((R)-cyclopropanecarboxamido(methyl)(oxo)-λ^6-sulfaneylidene)amino)-3-methoxy-1-oxopropan-2-yl)phosphonic Acid] | 0.9 | 0.77
4 | COC[C@@](OC[C@H]1O[C@@H](n2ncc3c(NC4CCCC4)nc(Cl)nc32)[C@H](O)[C@@H]1O)(C(=O)N=[S@](C)(=O)NC(=O)C1CC1)P(=O)(O)O [Example 12, ((S)-2-(((2R,3S,4R,5R)-5-(6-Chloro-4-(cyclopentylamino)-1H-pyrazolo[3,4-d]pyrimidin-1-yl)-3,4-dihydroxytetrahydrofuran-2-yl)methoxy)-1-(((S)-cyclopropanecarboxamido(methyl)(oxo)-λ^6-sulfaneylidene)amino)-3-methoxy-1-oxopropan-2-yl)phosphonic Acid] | 0.92 | 0.45
5 | COC[C@@](OC[C@H]1O[C@@H](n2ncc3c(NC4CCCC4)nc(Cl)nc32)[C@H](O)[C@@H]1O)(C(=O)N=[S@](C)(N)=O)P(=O)(O)O [Example 1, ((2S)-1-((Amino(methyl)(oxo)-λ^6-sulfaneylidene)amino)-2-(((2R,3S,4R,5R)-5-(6-chloro-4-(cyclopentylamino)-1H-pyrazolo[3,4-d]pyrimidin-1-yl)-3,4-dihydroxytetrahydrofuran-2-yl)methoxy)-3-methoxy-1-oxopropan-2-yl)phosphonic Acid] | 0.51 | 0.94
6 | CNC(=O)N[S@](C)(=O)=NC(=O)[C@@](COC)(OC[C@H]1O[C@@H](n2ncc3c(NC4CCCC4)nc(Cl)nc32)[C@H](O)[C@@H]1O)P(=O)(O)O [Example 9, ((S)-2-(((2R,3S,4R,5R)-5-(6-Chloro-4-(cyclopentylamino)-1H-pyrazolo[3,4-d]pyrimidin-1-yl)-3,4-dihydroxytetrahydrofuran-2-yl)methoxy)-3-methoxy-1-(((R)-methyl(3-methylureido)(oxo)-λ^6-sulfaneylidene)amino)-1-oxopropan-2-yl)phosphonic Acid] | 1.57 | 0.9

Now from value to compound:

Row | EC50 (CD73 [1]) [nM] | IC50 (CD73 [2]) [nM] | Structure (SMILES)
7 | 1.34 | 0.78 | COC[C@@](OC[C@H]1O[C@@H](n2ncc3c(NC4CCCC4)nc(Cl)nc32)[C@H](O)[C@@H]1O)(C(=O)N=S(C)(=O)NC(=O)C(C)C)P(=O)(O)O (single isomer, unassigned) [Example 16]
8 | 0.68 | 0.7 | CCC(=O)NS(C)(=O)=NC(=O)[C@@](COC)(OC[C@H]1O[C@@H](n2ncc3c(NC4CCCC4)nc(Cl)nc32)[C@H](O)[C@@H]1O)P(=O)(O)O (stereo partly drawn) [Example 13, ((2S)-2-(((2R,3S,4R,5R)-5-(6-Chloro-4-(cyclopentylamino)-1H-pyrazolo[3,4-d]pyrimidin-1-yl)-3,4-dihydroxytetrahydrofuran-2-yl)methoxy)-3-methoxy-1-((methyl(oxo)(propionamido)-λ^6-sulfaneylidene)amino)-1-oxopropan-2-yl)phosphonic Acid]
9 | 1 | 0.5 | COC[C@@](OC[C@H]1O[C@@H](n2ncc3c(NC4CCCC4)nc(Cl)nc32)[C@H](O)[C@@H]1O)(C(=O)N=[S@](C)(=O)NC(=O)OC)P(=O)(O)O [Example 18, ((S)-2-(((2R,3S,4R,5R)-5-(6-Chloro-4-(cyclopentylamino)-1H-pyrazolo[3,4-d]pyrimidin-1-yl)-3,4-dihydroxytetrahydrofuran-2-yl)methoxy)-3-methoxy-1-(((S)-((methoxycarbonyl)amino)(methyl)(oxo)-λ^6-sulfaneylidene)amino)-1-oxopropan-2-yl)phosphonic Acid]
10 | 0.98 | 0.58 | COC[C@@](OC[C@H]1O[C@@H](n2ncc3c(NC4CCCC4)nc(Cl)nc32)[C@H](O)[C@@H]1O)(C(=O)N=[S@](C)(=O)NC(C)=O)P(=O)(O)O [Example 17, ((S)-1-(((S)-Acetamido(methyl)(oxo)-λ^6-sulfaneylidene)amino)-2-(((2R,3S,4R,5R)-5-(6-chloro-4-(cyclopentylamino)-1H-pyrazolo[3,4-d]pyrimidin-1-yl)-3,4-dihydroxytetrahydrofuran-2-yl)methoxy)-3-methoxy-1-oxopropan-2-yl)phosphonic Acid]
11 | 7.78 | 6.3 | COC[C@@](OC[C@H]1O[C@@H](n2ncc3c(NC4CCCC4)nc(Cl)nc32)[C@H](O)[C@@H]1O)(C(=O)N=S(C)(=O)NC(=O)C(C)C)P(=O)(O)O (single isomer, unassigned) [Example 15]
12 | 1.15 | 0.74 | CCC(=O)NS(C)(=O)=NC(=O)[C@@](COC)(OC[C@H]1O[C@@H](n2ncc3c(NC4CCCC4)nc(Cl)nc32)[C@H](O)[C@@H]1O)P(=O)(O)O (stereo partly drawn) [Example 14, ((2S)-2-(((2R,3S,4R,5R)-5-(6-Chloro-4-(cyclopentylamino)-1H-pyrazolo[3,4-d]pyrimidin-1-yl)-3,4-dihydroxytetrahydrofuran-2-yl)methoxy)-3-methoxy-1-((methyl(oxo)(propionamido)-λ^6-sulfaneylidene)amino)-1-oxopropan-2-yl)phosphonic Acid]

— patent US20240140980A1, “HETEROCYCLIC INHIBITORS OF CD73 FOR TREATMENT OF DISEASE” (Teon Therapeutics, Inc., priority 2022, published 2024)
